In ChEMBL document CHEMBL5154698, “Novel PHD2/HDACs hybrid inhibitors protect against cisplatin-induced acute kidney injury” (Eur J Med Chem, 2022):
The source made the active and inactive calls. The calls are words filed in the database; no cut-off is given here.

Assays:
[1] = tested on: HK-2; assay: Antiproliferative activity against human HK-2 cells assessed as decrease in cell viability at 50 uM measured in presence of 10 uM cisplatin after 24 hrs by CCK-8 assay; type: functional
[2] = tested on: Mus musculus; assay: Nephroprotective activity against cisplatin-induced acute kidney injury in male C57BL/6 mouse assessed as plasma BUN concentration at 10 mg/kg/day, ip; type: functional
[3] = tested on: Mus musculus; assay: Nephroprotective activity against cisplatin-induced acute kidney injury in male C57BL/6 mouse assessed as plasma SCr concentration at 10 mg/kg/day, ip; type: functional
[4] = tested on: Mus musculus; assay: Nephroprotective activity against cisplatin-induced acute kidney injury in male C57BL/6 mouse assessed as serum EPO level at 10 mg/kg/day, ip; type: functional
[5] = molecular target: Egl nine homolog 1 (Homo sapiens, UniProt Q9GZT9); assay: Inhibition of PHD2 (unknown origin) measured by fluorescence polarization assay
Egl nine homolog 1, sequence (Q9GZT9 whole entry): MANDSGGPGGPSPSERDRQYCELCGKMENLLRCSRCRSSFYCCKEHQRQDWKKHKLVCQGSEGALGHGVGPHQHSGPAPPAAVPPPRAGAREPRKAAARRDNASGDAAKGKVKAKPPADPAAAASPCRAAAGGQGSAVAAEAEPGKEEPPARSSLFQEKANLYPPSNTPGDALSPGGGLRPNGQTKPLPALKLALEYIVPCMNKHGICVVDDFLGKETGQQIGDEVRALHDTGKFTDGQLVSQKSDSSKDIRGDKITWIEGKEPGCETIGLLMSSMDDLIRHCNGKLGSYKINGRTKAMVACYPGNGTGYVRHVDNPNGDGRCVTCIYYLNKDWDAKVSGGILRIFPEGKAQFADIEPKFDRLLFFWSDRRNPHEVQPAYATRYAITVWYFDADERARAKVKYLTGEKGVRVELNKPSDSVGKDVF

[6] = molecular target: Histone deacetylase 1 (Homo sapiens, UniProt Q13547); assay: Inhibition of HDAC1 (unknown origin) using trypsin and Ac-peptide as substrates
Histone deacetylase 1, sequence (Q13547 whole entry): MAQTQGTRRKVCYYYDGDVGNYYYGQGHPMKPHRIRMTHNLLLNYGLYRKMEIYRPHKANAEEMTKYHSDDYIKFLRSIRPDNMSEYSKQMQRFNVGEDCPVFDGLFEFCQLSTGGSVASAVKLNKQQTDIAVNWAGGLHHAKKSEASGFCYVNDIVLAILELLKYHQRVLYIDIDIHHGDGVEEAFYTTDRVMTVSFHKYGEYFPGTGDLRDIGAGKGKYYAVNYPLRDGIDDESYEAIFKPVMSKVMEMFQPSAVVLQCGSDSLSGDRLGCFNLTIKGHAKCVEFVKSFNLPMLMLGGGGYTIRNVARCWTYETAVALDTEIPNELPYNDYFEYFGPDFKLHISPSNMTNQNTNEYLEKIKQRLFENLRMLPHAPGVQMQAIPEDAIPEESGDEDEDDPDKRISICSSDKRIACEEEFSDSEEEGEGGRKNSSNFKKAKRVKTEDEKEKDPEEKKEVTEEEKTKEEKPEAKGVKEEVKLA

[7] = molecular target: Histone deacetylase 2 (Homo sapiens, UniProt Q92769)
Histone deacetylase 2, sequence (Q92769 whole entry): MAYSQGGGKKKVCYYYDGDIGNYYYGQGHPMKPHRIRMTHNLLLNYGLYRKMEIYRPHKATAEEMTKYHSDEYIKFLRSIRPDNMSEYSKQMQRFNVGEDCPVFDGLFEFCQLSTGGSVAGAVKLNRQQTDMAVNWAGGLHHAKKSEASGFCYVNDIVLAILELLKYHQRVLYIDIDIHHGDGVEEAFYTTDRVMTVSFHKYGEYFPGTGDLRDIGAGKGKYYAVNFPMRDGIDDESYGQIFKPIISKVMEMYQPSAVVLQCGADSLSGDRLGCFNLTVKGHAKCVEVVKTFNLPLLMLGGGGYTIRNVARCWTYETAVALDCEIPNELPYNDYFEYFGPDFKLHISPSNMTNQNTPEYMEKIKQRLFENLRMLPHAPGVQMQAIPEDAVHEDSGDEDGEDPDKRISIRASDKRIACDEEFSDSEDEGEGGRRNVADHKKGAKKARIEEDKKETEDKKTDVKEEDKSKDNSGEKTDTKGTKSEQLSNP

[8] = molecular target: Histone deacetylase 4 (Homo sapiens, UniProt P56524); assay: Inhibition of HDAC4 (unknown origin) using trypsin and Ac-peptide as substrates
Histone deacetylase 4, sequence (P56524 whole entry): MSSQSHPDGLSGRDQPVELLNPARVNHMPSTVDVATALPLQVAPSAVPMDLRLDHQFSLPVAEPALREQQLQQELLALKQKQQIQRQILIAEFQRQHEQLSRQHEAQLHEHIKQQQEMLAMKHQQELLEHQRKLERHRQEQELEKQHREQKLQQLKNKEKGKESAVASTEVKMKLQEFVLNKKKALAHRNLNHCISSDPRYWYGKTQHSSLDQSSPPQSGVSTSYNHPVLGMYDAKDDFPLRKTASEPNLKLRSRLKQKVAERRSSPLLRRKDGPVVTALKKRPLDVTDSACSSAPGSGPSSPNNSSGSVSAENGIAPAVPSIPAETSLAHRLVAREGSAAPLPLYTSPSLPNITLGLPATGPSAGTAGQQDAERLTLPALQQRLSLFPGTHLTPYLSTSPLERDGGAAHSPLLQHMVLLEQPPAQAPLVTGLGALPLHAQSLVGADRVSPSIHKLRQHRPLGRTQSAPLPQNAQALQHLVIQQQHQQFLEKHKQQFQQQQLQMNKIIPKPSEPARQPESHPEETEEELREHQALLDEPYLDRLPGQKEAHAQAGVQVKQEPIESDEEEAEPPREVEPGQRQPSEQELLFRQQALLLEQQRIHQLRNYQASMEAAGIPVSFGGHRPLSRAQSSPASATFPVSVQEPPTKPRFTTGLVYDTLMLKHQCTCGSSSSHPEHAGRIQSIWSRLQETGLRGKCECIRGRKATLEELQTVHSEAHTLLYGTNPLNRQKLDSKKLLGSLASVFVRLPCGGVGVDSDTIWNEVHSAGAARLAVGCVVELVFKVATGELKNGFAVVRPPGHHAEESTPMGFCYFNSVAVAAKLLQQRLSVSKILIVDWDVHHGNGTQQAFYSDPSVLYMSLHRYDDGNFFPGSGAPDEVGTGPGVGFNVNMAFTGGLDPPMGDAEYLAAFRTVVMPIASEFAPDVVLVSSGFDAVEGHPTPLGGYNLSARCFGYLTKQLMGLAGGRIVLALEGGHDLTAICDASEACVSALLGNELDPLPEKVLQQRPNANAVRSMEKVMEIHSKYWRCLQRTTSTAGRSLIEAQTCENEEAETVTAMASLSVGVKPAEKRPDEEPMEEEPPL

[9] = molecular target: T1, Protein deacetylase HDAC6 (Homo sapiens, UniProt Q9UBN7); assay: Inhibition of HDAC6 (unknown origin) using trypsin and Ac-peptide as substrates
T1 sequence (Q9UBN7 whole entry): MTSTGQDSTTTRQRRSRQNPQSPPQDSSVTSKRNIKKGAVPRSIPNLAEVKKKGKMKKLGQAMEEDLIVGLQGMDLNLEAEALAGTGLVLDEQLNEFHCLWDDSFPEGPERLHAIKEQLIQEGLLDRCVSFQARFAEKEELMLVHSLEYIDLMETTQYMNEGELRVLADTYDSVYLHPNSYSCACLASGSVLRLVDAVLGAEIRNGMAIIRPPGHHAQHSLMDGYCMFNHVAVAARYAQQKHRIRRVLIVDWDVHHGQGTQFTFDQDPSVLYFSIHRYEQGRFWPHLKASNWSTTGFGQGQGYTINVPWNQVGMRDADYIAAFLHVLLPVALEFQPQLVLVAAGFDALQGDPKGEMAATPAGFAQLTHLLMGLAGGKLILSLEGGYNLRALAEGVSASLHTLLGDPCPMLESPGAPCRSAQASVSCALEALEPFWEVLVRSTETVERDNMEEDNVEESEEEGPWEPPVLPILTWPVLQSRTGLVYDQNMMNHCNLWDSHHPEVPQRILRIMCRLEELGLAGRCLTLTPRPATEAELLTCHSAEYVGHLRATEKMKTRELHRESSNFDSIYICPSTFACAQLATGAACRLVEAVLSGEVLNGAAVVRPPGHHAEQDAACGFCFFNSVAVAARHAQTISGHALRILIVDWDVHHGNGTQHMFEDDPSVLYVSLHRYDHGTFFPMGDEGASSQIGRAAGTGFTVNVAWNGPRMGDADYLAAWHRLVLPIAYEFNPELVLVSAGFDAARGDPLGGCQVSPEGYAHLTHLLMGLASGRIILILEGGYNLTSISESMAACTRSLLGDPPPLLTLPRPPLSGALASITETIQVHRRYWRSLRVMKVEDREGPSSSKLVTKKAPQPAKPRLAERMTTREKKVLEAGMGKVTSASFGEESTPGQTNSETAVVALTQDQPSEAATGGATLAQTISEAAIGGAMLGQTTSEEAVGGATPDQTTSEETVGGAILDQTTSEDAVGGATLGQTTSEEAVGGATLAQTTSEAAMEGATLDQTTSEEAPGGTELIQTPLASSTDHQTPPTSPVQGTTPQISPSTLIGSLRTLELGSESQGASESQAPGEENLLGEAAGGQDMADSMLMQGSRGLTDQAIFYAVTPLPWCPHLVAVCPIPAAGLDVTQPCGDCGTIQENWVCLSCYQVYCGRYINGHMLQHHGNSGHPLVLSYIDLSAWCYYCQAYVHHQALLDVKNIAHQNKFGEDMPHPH

[10] = tested on: MCF7; assay: Antiproliferative activity against human MCF7 cells assessed as decrease in cell viability at 50 uM relative to control; type: functional, cell-based
[11] = tested on: A549; assay: Antiproliferative activity against human A549 cells assessed as decrease in cell viability at 50 uM relative to control; type: functional, cell-based
[12] = tested on: MCF7; assay: Antiproliferative activity against human MCF7 cells assessed as decrease in cell viability at 50 uM in presence of 100 uM cisplatin relative to control; type: functional
[13] = tested on: A549; assay: Antiproliferative activity against human A549 cells assessed as decrease in cell viability at 50 uM in presence of 40 uM cisplatin relative to control; type: functional
[14] = tested on: MCF7; assay: Induction of apoptosis in human MCF7 cells assessed as apoptotic cell population at 50 uM measured by Annexin V-FITC/propidium iodide staining based flow cytometry assay; type: functional
[15] = tested on: A549; assay: Induction of apoptosis in human A549 cells assessed as apoptotic cell population at 50 uM measured by Annexin V-FITC/propidium iodide staining based flow cytometry assay; type: functional
[16] = tested on: MCF7; assay: Induction of apoptosis in human MCF7 cells assessed as apoptotic cell population at 50 uM in presence of 100 uM cisplatin measured by Annexin V-FITC/propidium iodide staining based flow cytometry assay; type: functional
[17] = tested on: A549; assay: Induction of apoptosis in human A549 cells assessed as apoptotic cell population at 50 uM in presence of 100 uM cisplatin measured by Annexin V-FITC/propidium iodide staining based flow cytometry assay; type: functional
[18] = tested on: Mus musculus; assay: Nephroprotective activity against cisplatin-induced acute kidney injury in male C57BL/6 mouse assessed as decrease in expression of NGAL at 10 mg/kg/day, ip; type: functional, organism-based
[19] = tested on: Mus musculus; assay: Nephroprotective activity against cisplatin-induced acute kidney injury in male C57BL/6 mouse assessed as decrease tubular injury at 10 mg/kg/day, ip; type: functional, organism-based
[20] = tested on: HK-2; assay: Antiproliferative activity against human HK-2 cells assessed as decrease in cell viability at 0.78 uM measured after 24 hrs by CCK-8 assay; type: functional

## Cc1nc(C(=O)NCC(=O)O)c(O)c2ccc(Oc3ccccc3)cc12 [ROXADUSTAT]
[1]
  Activity: 71.12%
[2]
  Activity: 13.91 mmol/L
[3]
  Activity: 0.0947 mmol/L
[4]
  Activity: 23.46 mIU/ml

## O=C(NO)c1cnc(N2CCC(NC(=O)c3cnc(-n4cccn4)nc3O)CC2)nc1
[5]
  IC50: 1150 nM
[6]
  IC50: 19.8 nM
[7]
  IC50: 26.6 nM
[8]
  IC50: 1170 nM
[9]
  IC50: 16 nM
[10]
  Activity: Active
[11]
  Activity: Active
[12]
  Activity: 36.83%
[13]
  Activity: 39.09%
[14]
  Activity: 19.3%
[15]
  Activity: 4.9%
[16]
  Activity: 26.6%
[17]
  Activity: 13.2%
[1]
  Activity: 61.96%
[2]
  Activity: 10.86 mmol/L
[3]
  Activity: 0.0311 mmol/L
[4]
  Activity: 15.34 mIU/ml
[18]
  Activity: Active
[19]
  Activity: Active

## CC(/C=C/C(=O)NO)=C\[C@@H](C)C(=O)c1ccc(N(C)C)cc1 [TRICHOSTATIN]
[20]
  Activity: 70%
[2]
  Activity: 8.86 mmol/L
[3]
  Activity: 0.129 mmol/L
